This note sets out measurements from article PMC10343299, “S-Ethyl-Isothiocitrullin-Based Dipeptides and 1,2,4-Oxadiazole Pseudo-Dipeptides: Solid Phase Synthesis and Evaluation as NO Synthase Inhibitors” (Molecules, 2023).

Bounds are passed on as bounds.

The target in assay [1] is T1, oxygenase domain of nNOS (nNOSoxy) (Rattus norvegicus, UniProt P29476).
T1 construct: the oxygenase domain of nNOS (nNOSoxy) and iNOS (iNOSoxy); made in house; host or cells: Escherichia coli
Kind of assay: UV-visible difference spectroscopy titration of nNOSoxy. It is filed as binding. As to conditions: UV/Vis difference spectroscopy, ± SD, three experiments; read-out: Apparent equilibrium constant Ks nNOSoxy. The text has this: (§1) We performed UV–visible difference spectroscopy to analyze the interaction mode of some inhibitors with the heme-active site of NOS [54]. We have studied the effects of dipeptide-like compounds 7, 17, 19, 23, and 27 and 1,2,4-oxadiazole 35 on the UV–visible spectra of the oxygenase domain of nNOS (nNOSoxy) and iNOS (iNOSoxy). As expected, when added stepwise to n- and iNOSoxy, all selected compounds elicited different spectra with a trough at ~425 nm and a peak at ~395 nm, similar to the substrate L-arginine. This profile is characteristic of type I interactions, meaning that they are bound in close proximity to the heme prosthetic group and shifted the spin state equilibrium to the pentacoordinated heme–Fe^III state. Double reverse plotting of the differences in absorbance between the peak at ~395 nm and valley at ~425 nm (ΔA395–425 nm) as a function of the concentration of the added compounds allowed calculating apparent binding constants (Ks) (Table 3). The reference inhibitor SEITU [55] tightly bound both NOS isoforms with high affinity but no selectivity. With the exception of the dipeptide-like 27 and the heterocyclic analog 35, which similarly interacted with both proteins, other compounds preferentially bound nNOSoxy over iNOSoxy with apparent affinities close to SEITU for this isoform.
(§2) Full-length recombinant rat nNOS, mouse iNOS, bovine eNOS, and the heme domains of rat brain nNOS and mouse iNOS were expressed in Escherichia coli and purified as described previously.
(§3) This study was performed as previously described.

In another assay the target is T2, rat nNOS (Rattus norvegicus, UniProt P29476).
T2 construct: Full-length recombinant rat nNOS, mouse iNOS, bovine eNOS; made in house; host or cells: Escherichia coli
T2 sequence (P29476 whole entry): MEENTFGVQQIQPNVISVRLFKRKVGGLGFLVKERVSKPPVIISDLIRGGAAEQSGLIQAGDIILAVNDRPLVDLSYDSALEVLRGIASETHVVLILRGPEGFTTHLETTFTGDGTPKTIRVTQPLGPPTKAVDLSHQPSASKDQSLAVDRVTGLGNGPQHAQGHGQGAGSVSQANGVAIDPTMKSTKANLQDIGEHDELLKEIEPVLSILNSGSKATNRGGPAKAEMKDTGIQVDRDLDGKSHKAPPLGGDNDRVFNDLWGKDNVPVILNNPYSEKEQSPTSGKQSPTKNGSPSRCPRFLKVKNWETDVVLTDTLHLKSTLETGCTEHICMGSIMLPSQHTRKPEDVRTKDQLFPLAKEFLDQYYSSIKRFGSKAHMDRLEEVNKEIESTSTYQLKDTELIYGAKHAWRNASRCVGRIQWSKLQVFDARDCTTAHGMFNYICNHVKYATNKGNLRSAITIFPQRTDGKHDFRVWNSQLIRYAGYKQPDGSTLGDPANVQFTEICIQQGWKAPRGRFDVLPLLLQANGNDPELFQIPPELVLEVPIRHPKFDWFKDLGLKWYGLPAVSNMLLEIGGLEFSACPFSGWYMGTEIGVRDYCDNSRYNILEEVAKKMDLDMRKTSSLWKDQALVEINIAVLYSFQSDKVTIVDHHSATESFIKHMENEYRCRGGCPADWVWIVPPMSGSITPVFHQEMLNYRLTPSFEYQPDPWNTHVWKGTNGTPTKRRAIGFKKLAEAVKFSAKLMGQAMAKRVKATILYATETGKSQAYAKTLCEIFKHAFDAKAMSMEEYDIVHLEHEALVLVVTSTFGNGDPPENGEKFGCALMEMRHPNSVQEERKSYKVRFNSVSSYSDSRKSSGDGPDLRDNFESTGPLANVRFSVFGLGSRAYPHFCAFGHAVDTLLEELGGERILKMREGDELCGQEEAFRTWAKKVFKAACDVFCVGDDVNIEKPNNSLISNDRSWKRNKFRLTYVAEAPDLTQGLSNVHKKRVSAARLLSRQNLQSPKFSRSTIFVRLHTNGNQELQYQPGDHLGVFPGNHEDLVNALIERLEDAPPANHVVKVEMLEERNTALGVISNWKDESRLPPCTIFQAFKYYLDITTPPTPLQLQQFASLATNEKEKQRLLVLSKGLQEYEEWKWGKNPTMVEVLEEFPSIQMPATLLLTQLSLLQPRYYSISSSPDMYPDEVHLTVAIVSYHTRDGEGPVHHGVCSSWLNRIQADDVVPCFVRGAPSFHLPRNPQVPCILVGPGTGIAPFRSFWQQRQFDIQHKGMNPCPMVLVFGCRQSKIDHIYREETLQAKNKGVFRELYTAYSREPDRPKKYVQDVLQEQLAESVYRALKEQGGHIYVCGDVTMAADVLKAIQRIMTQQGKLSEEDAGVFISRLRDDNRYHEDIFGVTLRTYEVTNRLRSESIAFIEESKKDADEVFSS
The experiment in a line: NOS inhibition, oxyhemoglobin (hemoglobin capture) test, recombinant nNOS. It is filed as biochemical. As to conditions: dipeptide-like series; recombinant enzyme, 10 µM arginine, triplicate; NI = <50% inhibition at 100 μM. Summed up:
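Full-length E. coli-expressed recombinant enzyme; NO formation followed kinetically at 401 nm via oxyhemoglobin capture at 30 °C in 100 mM Hepes pH 7.5 with NADPH, BH4, FAD, FMN, DTT; arginine 20 µM (iNOS) or 10 µM (nNOS, plus calmodulin and CaCl2). Screened at 100 and 10 μM; IC50 if >50% inhibition at 100 μM.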

In assay [2] the target is T3, oxygenase domain of iNOS (iNOSoxy) (Mus musculus, UniProt P29477).
T3 construct: the oxygenase domain of nNOS (nNOSoxy) and iNOS (iNOSoxy); made in house; host or cells: Escherichia coli
T3 sequence (P29477 1-498 limits assumed): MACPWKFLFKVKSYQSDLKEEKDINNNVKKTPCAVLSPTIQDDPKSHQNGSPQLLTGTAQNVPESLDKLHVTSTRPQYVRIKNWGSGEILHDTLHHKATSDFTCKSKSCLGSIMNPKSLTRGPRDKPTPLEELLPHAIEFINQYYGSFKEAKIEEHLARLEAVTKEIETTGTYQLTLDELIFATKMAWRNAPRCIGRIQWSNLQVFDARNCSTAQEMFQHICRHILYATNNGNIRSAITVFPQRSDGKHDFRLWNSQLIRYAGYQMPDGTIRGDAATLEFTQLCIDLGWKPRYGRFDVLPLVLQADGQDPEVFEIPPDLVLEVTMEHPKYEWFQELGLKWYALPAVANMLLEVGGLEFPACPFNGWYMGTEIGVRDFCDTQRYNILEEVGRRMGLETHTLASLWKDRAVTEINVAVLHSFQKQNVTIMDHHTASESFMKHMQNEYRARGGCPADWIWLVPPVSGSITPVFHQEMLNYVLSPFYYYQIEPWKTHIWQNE
The experiment in a line: UV-visible difference spectroscopy titration of iNOSoxy. It is filed as binding. The conditions noted are these: UV/Vis difference spectroscopy, ± SD, three experiments; read-out: Apparent equilibrium constant Ks iNOSoxy.
Source text: as §1, §2, §3

Another assay deals with T4, bovine eNOS (Bos taurus, UniProt P29473).
T4 construct: Full-length recombinant rat nNOS, mouse iNOS, bovine eNOS; made in house; host or cells: Escherichia coli
T4 sequence (P29473 whole entry): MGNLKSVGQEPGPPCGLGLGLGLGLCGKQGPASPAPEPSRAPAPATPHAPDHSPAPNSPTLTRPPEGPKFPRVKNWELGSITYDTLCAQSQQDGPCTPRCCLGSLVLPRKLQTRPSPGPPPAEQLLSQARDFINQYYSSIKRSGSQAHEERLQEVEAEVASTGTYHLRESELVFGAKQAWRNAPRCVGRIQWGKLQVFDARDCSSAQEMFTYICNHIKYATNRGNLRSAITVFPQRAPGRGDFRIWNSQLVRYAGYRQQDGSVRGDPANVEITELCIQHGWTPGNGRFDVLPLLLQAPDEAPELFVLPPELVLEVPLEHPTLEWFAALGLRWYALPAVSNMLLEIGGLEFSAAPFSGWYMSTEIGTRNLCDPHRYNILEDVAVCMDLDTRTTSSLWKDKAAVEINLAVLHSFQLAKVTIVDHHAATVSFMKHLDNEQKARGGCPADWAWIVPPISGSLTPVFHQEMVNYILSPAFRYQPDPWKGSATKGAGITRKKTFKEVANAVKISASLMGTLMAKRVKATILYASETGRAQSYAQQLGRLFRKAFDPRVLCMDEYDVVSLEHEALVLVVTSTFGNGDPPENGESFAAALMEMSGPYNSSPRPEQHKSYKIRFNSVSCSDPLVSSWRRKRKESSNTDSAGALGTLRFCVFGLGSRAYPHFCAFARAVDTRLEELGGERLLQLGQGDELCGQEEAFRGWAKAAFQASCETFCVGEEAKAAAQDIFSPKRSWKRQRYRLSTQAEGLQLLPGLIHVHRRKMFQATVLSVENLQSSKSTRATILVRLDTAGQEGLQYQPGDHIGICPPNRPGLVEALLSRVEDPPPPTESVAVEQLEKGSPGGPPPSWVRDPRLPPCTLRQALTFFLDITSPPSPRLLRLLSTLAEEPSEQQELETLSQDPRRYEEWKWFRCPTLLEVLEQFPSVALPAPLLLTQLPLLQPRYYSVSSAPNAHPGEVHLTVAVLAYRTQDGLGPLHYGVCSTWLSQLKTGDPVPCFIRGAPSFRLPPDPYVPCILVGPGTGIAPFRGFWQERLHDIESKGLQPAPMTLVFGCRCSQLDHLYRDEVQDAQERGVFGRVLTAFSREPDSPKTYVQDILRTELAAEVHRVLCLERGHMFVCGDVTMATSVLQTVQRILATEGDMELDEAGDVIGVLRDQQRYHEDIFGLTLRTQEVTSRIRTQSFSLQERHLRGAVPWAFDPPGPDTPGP
The experiment in a line: NOS inhibition, oxyhemoglobin (hemoglobin capture) test, recombinant eNOS. It counts as biochemical. As to conditions: dipeptide-like series; recombinant enzyme, 10 µM arginine, triplicate; NI = <50% inhibition at 100 μM; read-out: IC50 (μM) eNOS (Bovine).

Another assay concerns INS-1 cells (nNOS). The experiment in a line: Glucose-induced insulin secretion. It is filed as cell-based. The conditions noted are these: 5.6 mM glucose, no IL-1β, 1 h, compounds 500 µM to 5 mM, L-NAME 5 mM. How it is done: Indeed, pancreatic β-cells are known to constitutively express the nNOS isoform, which negatively modulates glucose-induced insulin secretion.
The insulin-secreting cell line INS-1 (a gift from Prof. C. Wolheim, Geneva, Switzerland) was cultured in RPMI-1640 supplemented with 10% FCS, 100 units/mL penicillin, 100 µg/mL streptomycin, 2 mM L-glutamine, 10 mM HEPES, 1 mM sodium pyruvate, and […] 2-mercaptoethanol, according to M. Asfari et al.’s method.
The functional effects of compounds were evaluated on INS-1 cells. Cells were preincubated for 1 h at 37 °C in a Krebs–Ringer bicarbonate buffer (108 mM NaCl, 1.19 mM KH2PO4, 4.74 mM KCl, 2.54 mM CaCl2, 1.19 mM MgSO4·7H2O, and 18 mM NaHCO3) containing 2 g/L BSA in the absence of glucose. After removal of the medium, the cells were stimulated for another hour at 37°C in the same buffer in the presence of 5.6 mM glucose and the presence of increasing concentrations of L-NAME or compounds (from 500 µM to 5 mM). At the end of the incubation period, the medium was collected, and the insulin was measured using an insulin high-range assay kit (CisBio, Codolet, France). Data are expressed as means ± SEM of the experiments (indicated in the result part).

T1 sequence (P29476 1-720 limits assumed): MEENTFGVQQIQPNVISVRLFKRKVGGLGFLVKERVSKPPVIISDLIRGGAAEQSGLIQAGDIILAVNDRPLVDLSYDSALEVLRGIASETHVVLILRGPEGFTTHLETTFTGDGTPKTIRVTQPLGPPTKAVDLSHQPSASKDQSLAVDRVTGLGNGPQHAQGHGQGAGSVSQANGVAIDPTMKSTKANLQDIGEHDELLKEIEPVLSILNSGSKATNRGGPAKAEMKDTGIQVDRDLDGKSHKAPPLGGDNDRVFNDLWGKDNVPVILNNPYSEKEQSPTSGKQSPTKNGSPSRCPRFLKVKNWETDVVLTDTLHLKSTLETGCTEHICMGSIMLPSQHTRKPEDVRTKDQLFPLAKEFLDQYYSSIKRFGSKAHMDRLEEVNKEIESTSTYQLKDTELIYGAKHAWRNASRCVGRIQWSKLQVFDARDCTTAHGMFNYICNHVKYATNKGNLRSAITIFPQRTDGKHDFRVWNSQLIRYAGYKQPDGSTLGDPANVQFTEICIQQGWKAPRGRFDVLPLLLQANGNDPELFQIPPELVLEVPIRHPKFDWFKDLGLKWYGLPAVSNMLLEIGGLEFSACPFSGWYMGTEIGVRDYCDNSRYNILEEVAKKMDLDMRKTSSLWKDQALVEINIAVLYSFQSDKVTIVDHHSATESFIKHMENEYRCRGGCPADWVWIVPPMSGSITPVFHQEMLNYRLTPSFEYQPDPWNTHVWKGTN
Method for bovine eNOS: The inhibitory effects of all compounds against the three recombinant NOSs (rat nNOS, mouse iNOS, and bovine eNOS) were evaluated in 96-well plates using the oxyhemoglobin test [53].
NOS catalytic activity was measured using the hemoglobin capture assay [53]. The test was performed at 30 °C in 96-well microplates using a final volume of 200 µL. The assay mixture contained 100 µM NADPH, 10 µM BH4, 6 µM HbO2, 100 µM DTT, 5 µM FAD, 5 µM FMN, 10 µM (nNOS and eNOS), or 20 µM (iNOS) arginine, all in a 100 mM Hepes buffer, pH 7.5, and, for constitutive n- and e-NOS, 10 µg/mL calmodulin, and 1 mM CaCl2. The studied compounds were introduced as 2 μL of ×100 concentrated solutions in DMSO, and the control experiments were performed with DMSO or the buffer only. The kinetics of NO production were measured at 401 nm using an Infinite F500 microplate reader (Tecan, Singapore).

In general, IC50 refers to the concentration needed to halve the response being measured. `CCSC(=N)NCCC[C@H](N)C(=O)N[C@H]1CCCN(Cc2ccccc2)C1` [Compound 7]: the Kd turned out to be 7.1 ± 2.6 µM in assay [1] and 406 ± 97 µM in assay [2]. At rat nNOS, the IC50 was 17.5 µM. In addition, on bovine eNOS, the inhibition at 100 µM was less than 50%. Moreover, in the assay with INS-1 cells (nNOS), the “Effect on insulin secretion” value is “dose-dependently stimulate glucose insulin secretion with better efficiency than L-NAME”.
Consider `CCSC(=N)NCCC[C@H](N)C(=O)N[C@H]1CCCN(Cc2ccc(Cl)c(C(F)(F)F)c2)C1` [Compound 17], for which the Kd turned out to be 3.6 ± 1.5 µM in assay [1] and 36.4 ± 4.6 µM in assay [2]. Further, the IC50 on rat nNOS was 5 µM. Moreover, the inhibition at 100 µM at bovine eNOS is less than 50%. Further, the “Effect on insulin secretion” value in the assay on INS-1 cells (nNOS) was “dose-dependently stimulate glucose insulin secretion with better efficiency than L-NAME”.
Consider `CCSC(=N)NCCC[C@H](N)C(=O)N[C@H]1CCCN(Cc2cccc(-c3cccc(C(=O)O)c3)c2)C1` [Compound 27], for which the Kd came to 70.6 ± 22.8 µM in assay [1] and 57.9 ± 8 µM in assay [2]. For the same molecule, the IC50 on rat nNOS is 9.5 µM. Also, the inhibition at 100 µM at bovine eNOS was less than 50%. In addition, in the assay with INS-1 cells (nNOS), the “Effect on insulin secretion” value was “dose-dependently stimulate glucose insulin secretion with better efficiency than L-NAME”.
